US20230293560A1, “METHOD FOR MODULATING THE BLADDER MICROBIOME TO IMPROVE BLADDER HEALTH” (Kimberly-Clark Worldwide, Inc., priority 2020, published 2023)
Values joined by “and” are separate entries in the source; they are usually repeats but may differ in a detail not shown here. Identical values can stand only once.

Key:
[1] = test system: ratio of L. crispatus/S. anginosus; assay: Therapeutic effect protocol (competition assay); format: cell-based, Lactobacillus crispatus; Streptococcus anginosus; details: Lc-3 vs Sa-2
Excerpt: As used herein, the term “therapeutic effect” refers to the ability of the compositions and formulations of the present disclosure to stimulate the growth of L. crispatus relative S. anginosus measured according to the therapeutic effect protocol described below. The therapeutic effect can be expressed as a ratio of L. crispatus to S. anginosus and is desirably greater than about 100, more preferably greater than about 500 and more desirably greater than about 1,000.
(§1) Further testing was conducted to put the prebiotic compounds in competition assay testing, as further described in the test methods section herein. In the competition assay testing, each competition involved testing a single prebiotic compound with the commensal bacteria species of L. crispatus, KC18-1173-1, Bladder (“Lc-3”—Table 2) against the pathogenic bacterial species of S. anginosus, KC18-1131-3B, Bladder (“Sa-2”—Table 2).
(§2) • 1. An in house bacterial agar was created based on MRS agar (Kaplan and Hutkins, 2000) where the glucose is substituted for the prebiotic to be tested (either dextran MW ˜6,000, alpha-cyclodextrin, glucomannan, or pectin), bromocresol purple was included as a pH indicator. • 2. Bacteria were enumerated on each agar and color changes were recorded. Method for Competition Assay (Modified from “In Vitro Evaluation of Nutrients that Selectively Confer a Competitive Advantage to Lactobacilli” Vongsa et al, Beneficial Microbes 2016) • 1. Create 2% w/v stock of prebiotic or positive control (glucose/dextrose) as described above. • 2. From a freezer stock subculture the bacteria twice into De Man, Rogosa and Sharpe (MRS) broth (BD Difco, Becton Dickinson, Franklin Lakes, NJ), 37° C., stationary, anaerobic, overnight. • 3. From the last subculture, plate onto an MRS agar plate for L. crispatus KC18-1173-1 or blood agar for S. anginosus KC18-1131-3B, grow 37° C., stationary, anaerobic, overnight. • 4. Create a bacterial suspension by using a sterile tipped swab to transfer colonies of bacteria into a PBS suspension blank to a 2 MacFarland for both species. • 5. Enumerate the starting culture. • 6. Add 9.8 mL of prebiotic media into a 15 mL conical tube. • 7. Add 100 μL of the diluted bacteria to the media, incubate at 37° C., anaerobic, 48 hours. • 8. Harvest 100 μL from the tube containing the prebiotic and plate onto MRS agar and tryptic soy agar (TSA). • 9. Enumerate the bacteria on the MRS agar (both the L. crispatus and the S. anginosus). Small colonies are counted as S. anginosus and large colonies are counted as L. crispatus. • 10. Enumerate the bacteria on the TSA plate. […] Growth of the bacteria in the negative control (CHL media without prebiotic) was subtracted from the growth in the presence of the prebiotic or formulation.
Colonies of L. crispatus and S. anginosus were tested against in the competition method assay test method as described above. The therapeutic effect was calculated by comparing the colony forming units recovered after the competition assay of both L. crispatus and S. anginosus and calculating the ratio of L. crispatus/S. anginosus. A larger number indicates an increase in L. crispatus and/or a decrease in S. anginosus and a smaller number indicates a decrease in L. crispatus and/or an increase in S. anginosus.

[2] = test system: S. anginosus, KC18-1131-3B, Bladder (Sa-2); format: cell-based; details: Table 6, prebiotic 2%, one line per replicate
Procedure: as §1, §2

[3] = test system: L. crispatus, KC18-1173-1, Bladder (Lc-3); assay: Competition assay, L. crispatus recovered; format: cell-based, Lactobacillus crispatus; details: Table 6, prebiotic 2%, one line per replicate
Procedure: as §1, §2

[4] = change vs start, background growth in CHL media subtracted, MRS agar

SMILES | Therapeutic Effect (ratio of L. crispatus/S. anginosus) ([1]; Table 6, prebiotic 2%) | Sa-2 MRS Δ [2, 4] | Sa-2 TSA Δ ([2]; change vs start, background growth in CHL media subtracted, TSA) | Sa-2 MRS end ([2]; competition Sa-2 vs Lc-3, 48 hours, anaerobic, enumerated on MRS agar) | Sa-2 TSA end ([2]; competition Sa-2 vs Lc-3, 48 hours, enumerated on TSA) | Lc-3 MRS Δ [3, 4] | Lc-3 MRS end ([3]; competition Sa-2 vs Lc-3, 48 hours, enumerated on MRS agar) | outcome of the bacterial competition assay, in words ([1]; Tables 6 and 7)
CO[C@H]1O[C@H](CO)[C@@H](O)[C@H](O)[C@H]1O [Alpha-Methyl-D-Glucoside] | 1.21E−01 (2×) and 1.74E−01 (2×) | 0.45 Log CFU/mL and 0.55 Log CFU/mL | 0.62 Log CFU/mL and 0.41 Log CFU/mL | 7.15 Log CFU/mL and 7.40 Log CFU/mL | 7.47 Log CFU/mL and 7.54 Log CFU/mL | 1.39 Log CFU/mL and 0.70 Log CFU/mL | 6.52 Log CFU/mL and 6.78 Log CFU/mL | 
OC[C@H]1O[C@H](OC[C@H]2OC(O)(CO)[C@@H](O)[C@@H]2O)[C@H](O)[C@@H](O)[C@@H]1O (some centres unmarked) [Palatinose (isomaltulose), isomaltulose] |  |  |  |  |  |  |  | supported the growth of Lactobacillus crispatus over Streptococcus anginosus
